From patent publication US9359298B2, “Cajanine structure analogous compound, preparation method and use” (INSTITUTE OF MEDICINAL BIOTECHNOLOGY, CHINESE ACADEMY OF …, priority 2011, dated 2016)
Values after ≈ are worked out from the molar mass of the structure shown. Like-named read-outs stand apart in the source and are kept apart here.

Experiments:
Type in all cases: cell-based
PC12 cells [1] = test: Neuroprotective activity assay, rotenone injury to PC12 cells (MTT); details: for viability at 10 µM: Rattus norvegicus, PC-12, 48 h, read-out: rotenone (surviving PC12 cells, MTT 570 nm); for protective effect on rotenone injury to PC12 cells: statement in words
Protocol: (§1) Discard the original culture media from confluent monolayers of PC12 cells (simulated neuronal cells), add DMEM complete medium with 5% FBS, 5% horse serum gently beat upon the cells with a pipette to completely disperse them, inoculate 100 μl cell suspension at a density of […] per well to 96 hole plates treated with poly-lysine (0.1 mg/ml) in advance, culture for 24h. Divide the experimenting cells into control group, model group and dosing groups. Add complete medium to the control group. Model groups includes rotenone group and serum-deprived group, add rotenone to the corresponding modules with a final concentration of 4 μM rotenone to take effect on the cells for 48 h, add serum-deprived groups with serum-free DMEM medium to take effect on the cells for 48 h. Dosing groups also includes two groups, one using rotenone module as model, another using serum-deprived module as model, and both add in 10 μM test compounds during modeling. 48h later, add 10 μl 5 mg/ml MTT, subsequently discard the supernatant 4h later and add in 150 μl DMSO, measure 570 nm absorbance to represent the numbers of surviving cells.

Coxsackie virus B6 = test: Coxsackie virus activity assay (CPE in Vero cells); details: for IC50: Vero, read-out: COX-B6 IC50, Vero cells, about 100TCID50, CPE, Reed-Muench
HCV = test: Anti-hepatitis C virus (HCV) activity assay (HCV RNA in Huh7.5 cells); details: for EC50: Hepatitis C virus, Huh7.5, 72 h, read-out: HCV EC50
Protocol: Inoculate Huh7.5 cells into 96-well plates to a density of 3×10^4 cells/cm^2, culture for 24h, infect the cells with 45 IU/cell HCV supernatant, meanwhile, add drug solutions or solvent control for treatment.

PC12 cells [2] = test: Neuroprotective activity assay, serum-deprived injury to PC12 cells (MTT); details: for viability at 10 µM: Rattus norvegicus, PC-12, 48 h, read-out: serum-deprived (surviving PC12 cells, MTT 570 nm); for protective effect on serum-deprived injury to PC12 cells: statement in words
Protocol: as §1

[3] = test system: Influenza A virus (hanfang359/95); test: Determination of anti-influenza virus activity (CPE in MDCK cells); details: for IC50: Influenza A virus, MDCK, 36 h
HIV-1 III B virus = test: Anti-HIV activity assay (P24 antigen in MT-4 cells); details: for IC50: Human immunodeficiency virus 1, MT4, 96 h, read-out: HIV IC50
[4] = 10 μM test compound, 4 μM rotenone, 48 h, Control 100.0 ± 8.9, Model 73.2 ± 7.8
[5] = Huh7.5 cells, 72 h, HCV RNA by RT-PCR, Reed-Muench
[6] = 10 μM test compound, 48 h, Control 100.0 ± 9.2, Model 69.3 ± 4.1
[7] = MT-4 cells, HIV-1 III B 100TCID50, 96 h, P24 antigen

Q: How did the viability at 10 µM (PC12 cells [1]; [4]) turn out when `COc1cc(/C=C/c2ccccc2)c(C(=O)O)c(OC(=O)c2cccnc2)c1CC=C(C)C` [Compound 24k, 2-(pyridyl-3-formylox)-3-isopentenyl-4-methoxy-6-[(E)-styryl]benzoic acid] was run?
A: 85.6 ± 2.1%

Q: What about the “protective effect on rotenone injury to PC12 cells” value (PC12 cells [1]) of the same compound?
A: the strongest activities

Q: And the IC50 (Coxsackie virus B6)?
A: 1.36 µg/mL (≈ 3.07 µM)

Q: And the EC50 (HCV; [5])?
A: 4.87 µg/mL (≈ 11 µM)

Q: What about the viability at 10 µM (PC12 cells [2]; [6]) of the same compound?
A: 89.6 ± 2.3%

Q: What about the “protective effect on serum-deprived injury to PC12 cells” value (PC12 cells [2]) of the same compound?
A: the strongest activities

Q: And the IC50 [3]?
A: 3.55 µg/mL (≈ 8 µM)

Q: And the IC50 (HIV-1 III B virus; [7])?
A: 2.17 µg/mL (≈ 4.89 µM)

Q: What does the source list for `COc1ccnc(/C=C/c2cc(OC)c(CC=C(C)C)c(O)c2C(=O)O)c1` [Compound 1v, 2-hydroxy-3-isopentenyl-4-methoxy-6-[(E)-2-(4-methoxypyrid-2-yl)ethenyl]benzoic acid]?
A: viability at 10 µM (PC12 cells [1]; [4]): 87.2 ± 2.6%; IC50 (Coxsackie virus B6): 1.25 µg/mL (≈ 3.38 µM); EC50 (HCV): 1.25 µg/mL (≈ 3.38 µM); viability at 10 µM (PC12 cells [2]; [6]): 79.9 ± 1.6%; IC50 [3]: 2.31 µg/mL (≈ 6.25 µM); IC50 (HIV-1 III B virus; [7]): 1.48 µg/mL (≈ 4.01 µM)

Q: Which results are given for `COc1cc(/C=C(\C)c2cc(O)cc(O)c2)cc(OC)c1` [Compound 21g, 1,3-dimethoxy-5-[(E)-2-(3,5-dihydroxyphenyl)propen-1-yl]benzene]?
A: viability at 10 µM (PC12 cells [1]; [4]): 82.3 ± 3.1%; IC50 (Coxsackie virus B6): 6.84 µg/mL (≈ 23.9 µM); EC50 (HCV; [5]): 0.9 µg/mL (≈ 3.14 µM); viability at 10 µM (PC12 cells [2]; [6]): 80.2 ± 1.5%; IC50 [3]: 4.25 µg/mL (≈ 14.8 µM); IC50 (HIV-1 III B virus; [7]): 1.27 µg/mL (≈ 4.44 µM)

Q: Which viability at 10 µM (PC12 cells [1]; [4]) does the source give for `COc1cc(/C=C/c2cccs2)cc(O)c1CC=C(C)C` [Compound 10j] here?
A: 84.6 ± 5.2%

Q: And the “protective effect on rotenone injury to PC12 cells” value (PC12 cells [1])?
A: the strongest activities

Q: And the IC50 (Coxsackie virus B6)?
A: 1.56 µg/mL (≈ 5.19 µM)

Q: What about the EC50 (HCV; [5]) of the same compound?
A: 0.87 µg/mL (≈ 2.9 µM)

Q: And the “anti-HCV viral activity” value (HCV; statement in words)?
A: stronger anti-HIV, HCV viral activities

Q: What about the viability at 10 µM (PC12 cells [2]; [6]) of the same compound?
A: 82.3 ± 2.5%

Q: And the “protective effect on serum-deprived injury to PC12 cells” value (PC12 cells [2])?
A: the strongest activities

Q: What about the IC50 [3] of the same compound?
A: > 18.5 µg/mL

Q: And the IC50 (HIV-1 III B virus; [7])?
A: 0.66 µg/mL (≈ 2.2 µM)

Q: And the “anti-HIV viral activity” value (HIV-1 III B virus; statement in words)?
A: stronger anti-HIV, HCV viral activities

Q: `COc1cc(/C=C/c2cc(OC)c(OC)c(OC)c2)cc(O)c1CC=C(C)C` [Compound 10y, 2-isopentenyl-3-methoxy-5-[(E)-3,4,5-trimethoxystyryl]phenol] was tested. Which viability at 10 µM (PC12 cells [1]; [4]) did it give?
A: 89.5 ± 2.5%

Q: And the IC50 (Coxsackie virus B6)?
A: 2.58 µg/mL (≈ 6.71 µM)

Q: And the EC50 (HCV; [5])?
A: 1.39 µg/mL (≈ 3.62 µM)

Q: And the viability at 10 µM (PC12 cells [2]; [6])?
A: 89.1 ± 5.4%

Q: And the IC50 [3]?
A: 0.13 µg/mL (≈ 0.338 µM)

Q: And the “anti-influenza virus activities compared with the lead compound cajanine” value ([3]; statement in words)?
A: significantly stronger than the lead compound cajanine

Q: What about the IC50 (HIV-1 III B virus; [7]) of the same compound?
A: 1.66 µg/mL (≈ 4.32 µM)

Q: For `COc1cccc(/C=C/c2cc(O)c(CC=C(C)C)c(OC)c2)n1` [10f′], which viability at 10 µM (PC12 cells [1]; [4]) is on record?
A: 79.1 ± 5.6%

Q: And the IC50 (Coxsackie virus B6)?
A: 2.31 µg/mL (≈ 7.1 µM)

Q: And the EC50 (HCV; [5])?
A: 0.61 µg/mL (≈ 1.87 µM)

Q: What about the viability at 10 µM (PC12 cells [2]; [6]) of the same compound?
A: 80.5 ± 3.2%

Q: What about the IC50 [3] of the same compound?
A: 0.23 µg/mL (≈ 0.707 µM)

Q: What about the IC50 (HIV-1 III B virus; [7]) of the same compound?
A: 1.04 µg/mL (≈ 3.2 µM)

Q: What does the source list for `COC(=O)c1c(/C=C/c2ccccc2)cc(OC)c(CC=C(C)C)c1OC` [Compound 14, methyl 2,4-dimethoxy-3-isopentenyl-6-[(E)-styryl]benzoate]?
A: viability at 10 µM (PC12 cells [1]; [4]): 73.7 ± 8.5%; IC50 (Coxsackie virus B6): 1.6 µg/mL (≈ 4.37 µM); EC50 (HCV; [5]): 1.77 µg/mL (≈ 4.83 µM); viability at 10 µM (PC12 cells [2]; [6]): 69.7 ± 5.6%; IC50 [3]: > 2.06 µg/mL; IC50 (HIV-1 III B virus; [7]): 1.32 µg/mL (≈ 3.6 µM)

Q: Which results are given for `COc1cc(/C=C/c2cc(O)c(CC=C(C)C)c(OC)c2)nc(OC)c1` [10d′]?
A: viability at 10 µM (PC12 cells [1]; [4]): 94.3 ± 5.4%; IC50 (Coxsackie virus B6): 0.35 µg/mL (≈ 0.985 µM); EC50 (HCV; [5]): 0.65 µg/mL (≈ 1.83 µM); viability at 10 µM (PC12 cells [2]; [6]): 91.2 ± 3.2%; IC50 [3]: 0.14 µg/mL (≈ 0.394 µM); IC50 (HIV-1 III B virus; [7]): 1.3 µg/mL (≈ 3.66 µM)

Q: For `COc1cc(/C=C/C=C/c2ccccc2)c(C(=O)O)c(O)c1CC=C(C)C` [Compound 1m, 2-hydroxy-3-isopentenyl-4-methoxy-6-[(1′E,3′E)-phenylbutadien-1′,3′-yl]benzoic acid], which viability at 10 µM (PC12 cells [1]; [4]) is on record?
A: 74.4 ± 4.4%

Q: And the IC50 (Coxsackie virus B6)?
A: > 2.06 µg/mL

Q: What about the EC50 (HCV) of the same compound?
A: 6.17 µg/mL (≈ 16.9 µM)

Q: And the viability at 10 µM (PC12 cells [2]; [6])?
A: 21 ± 2.2%

Q: And the IC50 [3]?
A: 6.17 µg/mL (≈ 16.9 µM)

Q: What about the IC50 (HIV-1 III B virus; [7]) of the same compound?
A: 1.07 µg/mL (≈ 2.94 µM)

Q: Which “rotenone (surviving PC12 cells, MTT 570 nm)” value (PC12 cells [1]; [4]) does the source give for `CC(C)=CCc1c(O)cc(/C=C/c2ccccc2)c(C(=O)O)c1O` [Compound 33, 2,4-dihydroxy-3-isopentenyl-6-[(E)-styryl]benzoic acid] here?
A: 75.6 ± 2.1

Q: What about the “COX-B6 IC50” value (Coxsackie virus B6; Vero cells, about 100TCID50, CPE, Reed-Muench) of the same compound?
A: 2.31 µg/mL

Q: And the “HCV EC50” value (HCV; [5])?
A: 1.55 µg/mL

Q: And the “serum-deprived (surviving PC12 cells, MTT 570 nm)” value (PC12 cells [2]; [6])?
A: 16.8 ± 0.4

Q: And the “Influenza A virus (hanfang359/95) IC50” value [3]?
A: 2.35 µg/mL

Q: What about the “HIV IC50” value (HIV-1 III B virus; [7]) of the same compound?
A: 2.01 µg/mL
